In one data set the test system is Ipomoea purpurea. Briefly: Field foliar treatment test (Test Example 1). The class given is in vivo. The settings on record: foliar spray at 1.0- to 2.0-leaf stage, wettable powder, active ingredient 10 g/a, 21st day from the treatment. How it is done:
(§1) Alluvial soil from a field was put in a resin-made vat having an area of 200 cm^2. After fertilization, the seeds of Echinochloa crus-galli, Brassica juncea, and Ipomoea purpurea were cast on the soil and uniformly covered with the soil. Then, cultivation was continued in a greenhouse, and when the weeds to be tested reached the 1.0- to 2.0-leaf stage, the wettable powder obtained in Formulation Example 1 was diluted with water and a predetermined amount thereof was sprayed uniformly to the weeds by means of a small-sized power pressure spray to give 10 g of the active ingredient per an are. Thereafter, cultivation was further continued in the greenhouse, and the herbicidal effect was examined on the 21st day from the treatment. The results obtained are shown in Table 7 (the compound numbers in Table 7 correspond to those in Table 1 to 6). The herbicidal effect was evaluated in terms of herbicidal rate obtained from the following equation: Herbicidal rate (%)=[1−(Weight of weeds above the ground in a treated plot)/(Weight of weeds above the ground in a non-treated plot)]×100 and was expressed by herbicidal index according to the following criteria. [table]

A further data set deals with Echinochloa crus-galli. As to the kind of experiment: Field foliar treatment test (Test Example 1). The settings on record: foliar spray at 1.0- to 2.0-leaf stage, wettable powder, active ingredient 10 g/a, 21st day from the treatment. The class given is in vivo. How it is done:
as §1

The next data set relates to Brassica juncea. As to the kind of experiment: Field foliar treatment test (Test Example 1). Type of data set: in vivo. The note with it: foliar spray at 1.0- to 2.0-leaf stage, wettable powder, active ingredient 10 g/a, 21st day from the treatment. How it is done: as §1

As a reminder, the melting point is the temperature of the solid-liquid transition. On to `Cc1cc2nc(OC(C)C)nc(-c3cccc(C(F)(F)F)c3)c2s1` [Compound No. 6-231, 2-isopropoxy-6-methyl-4-[3-(trifluoromethyl)phenyl]thieno[3,2-d]pyrimidine], for which the melting point is 106 °C. Also, the “Herbicidal effect Ipomoea purpurea (herbicidal index)” value in the data set on Ipomoea purpurea is 5 (91 to 100). Moreover, in the data set with Echinochloa crus-galli, the “Herbicidal effect Echinochloa crus-galli (herbicidal index)” value is 4 (71 to 90). Besides, the “Herbicidal effect Brassica juncea (herbicidal index)” value with Brassica juncea is given as 5 (91 to 100).
In turn, `Cc1cc2c(Oc3cccc(C(F)(F)F)c3)nc(CCC(F)(F)F)nc2s1` [Compound No. 6-130, 6-methyl-4-[3-(trifluoromethyl)phenoxy]-2-(3,3,3-trifluoropropyl)thieno[2,3-d]pyrimidine] showed a melting point of 85 °C. Moreover, the “Herbicidal effect Ipomoea purpurea (herbicidal index)” value in the data set on Ipomoea purpurea is reported as 3 (51 to 70). In addition, the “Herbicidal effect Echinochloa crus-galli (herbicidal index)” value with Echinochloa crus-galli is listed as 2 (31 to 50). Also, the “Herbicidal effect Brassica juncea (herbicidal index)” value in the data set with Brassica juncea is on record as 4 (71 to 90).
With `CSc1nc(-c2ccc(C(F)(F)F)cc2)c2cc(C)sc2n1` [Compound No. 6-171, 6-methyl-2-methylthio-4-[4-(trifluoromethyl)phenyl]thieno[2,3-d]pyrimidine], the melting point worked out at 113 °C.
Still for that read-out and setting: in the case of `Cc1cc2c(-c3sc(C=O)cc3C)nc(Cl)nc2s1` [Compound No. 5-23, 2-chloro-4-(5-formyl-3-methylthiophen-2-yl)-6-methylthieno[2,3-d]pyrimidine] it was 204 to 206 °C (dec.); in that of `CNc1nc(-c2ccc(C(F)(F)F)cc2)c2cc(C)sc2n1` [Compound No. 6-168, 6-methyl-2-(methylamino)-4-[4-(trifluoromethyl)phenyl]thieno[2,3-d]pyrimidine], 233 °C; in that of `Cc1cc2c(-c3cccc(C(F)(F)F)c3)ncnc2s1` [Compound No. 6-9, 6-methyl-4-[3-(trifluoromethyl)phenyl]thieno[2,3-d]pyrimidine], 70 to 72 °C.
Still for that read-out and setting: in the case of `Cc1cc2c(-c3cccnc3Cl)nc(O)nc2s1` [Compound No. 4-22, 4-(2-chloropyridine-3-yl)-6-methylthieno[2,3-d]pyrimidine-2-ol] it was greater than 300 °C; in that of `Cc1cc2c(-c3cccc(C(F)(F)F)c3)nc(Cl)nc2s1` [Compound No. 5-4, 2-chloro-6-methyl-4-[3-(trifluoromethyl)phenyl]thieno[2,3-d]pyrimidine], 108 °C; in that of `Cc1cc2c(-c3cccc(C(F)(F)F)c3)nc(O)nc2s1` [Compound No. 4-3, 6-methyl-4-[3-(trifluoromethyl)phenyl]thieno[2,3-d]pyrimidine-2-ol], 251 to 253 °C (dec.).
Same read-out and setting: to `Cc1cc2c(-c3sccc3C)nc(Cl)nc2s1` [Compound No. 5-22, 2-chloro-6-methyl-4-(3-methylthiophen-2-yl)thieno[2,3-d]pyrimidine] belongs 127 °C.

For the origin of these results see US20070010402A1, “Novel herbicides, usage thereof, novel thienopyrimidine derivatives, intermediates of the same, and process for production thereof” (NIHON NOHYAKU CO., LTD.,, priority 2002, published 2007).
